Experimental data reported in patent publication US20200347043A1, “MODULATORS OF THE INTEGRATED STRESS PATHWAY” (Calico Life Sciences LLC, priority 2019, published 2020).

System: HEK293T cells carrying the ATF4 luciferase reporter
Experiment: ATF4-Luc assay (in vitro model of VWMD)
Assay type: cell-based, human
Conditions: Homo sapiens, HEK-293T, 1 μg/mL tunicamycin, 7 hours, One Glo luminescence
Outline: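 Stable HEK293T line expressing firefly luciferase behind the human ATF4 5′-UTR, treated with 1 μg/mL tunicamycin plus compound for 7 hours. Luminescence read with One Glo; EC50 determined.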

First: O=C(NC12CC(c3cnn(-c4ccc(C(F)(F)F)nc4)c3)(C1)C2)[C@H]1C[C@@H](O)c2cc(Cl)ccc2O1 [Compound 262, (2R,4R)-6-chloro-4-hydroxy-N-(3-{1-[6-(trifluoromethyl)pyridin-3-yl]-1H-pyrazol-4-yl}bicyclo[1.1.1]pentan-1-yl)-3,4-dihydro-2H-1-benzopyran-2-carboxamide]
Second: O=C(NC12CC(c3cnn(-c4ccc(C(F)(F)F)nc4)c3)(C1)C2)[C@@H]1C[C@@H](O)c2cc(Cl)ccc2O1 [Compound 263, (2S,4R)-6-chloro-4-hydroxy-N-(3-{1-[6-(trifluoromethyl)pyridin-3-yl]-1H-pyrazol-4-yl}bicyclo[1.1.1]pentan-1-yl)-3,4-dihydro-2H-1-benzopyran-2-carboxamide]
The EC50 of the first is lower: < 10 nM for the first, 10 to 50 nM for the second. The first is the more potent here.

First: O=C(NC12CC(c3cnn(-c4ccc(Cl)cc4)c3)(C1)C2)[C@H]1C[C@@H](O)c2cc(Cl)ccc2O1 [Compound 264, (2R,4R)-6-chloro-N-{3-[1-(4-chlorophenyl)-1H-pyrazol-4-yl]bicyclo[1.1.1]pentan-1-yl}-4-hydroxy-3,4-dihydro-2H-1-benzopyran-2-carboxamide]
Second: O=C(NC12CC(c3cnn(-c4ccc(Cl)cc4)c3)(C1)C2)[C@@H]1C[C@@H](O)c2cc(Cl)ccc2O1 [Compound 265, (2S,4R)-6-chloro-N-{3-[1-(4-chlorophenyl)-1H-pyrazol-4-yl]bicyclo[1.1.1]pentan-1-yl}-4-hydroxy-3,4-dihydro-2H-1-benzopyran-2-carboxamide]
The EC50 of the first is lower: < 10 nM for the first, 10 to 50 nM for the second.

First: O=C(NC12CC(c3cc([C@H]4C[C@@H](OC(F)(F)F)C4)no3)(C1)C2)[C@H]1C[C@@H](O)c2cc(Cl)ccc2O1 [Compound 266, (2R,4R)-6-chloro-4-hydroxy-N-(3-{3-[cis-3-(trifluoromethoxy)cyclobutyl]-1,2-oxazol-5-yl}bicyclo[1.1.1]pentan-1-yl)-3,4-dihydro-2H-1-benzopyran-2-carboxamide]
Second: O=C(NC12CC(c3cc([C@H]4C[C@@H](OC(F)(F)F)C4)no3)(C1)C2)[C@@H]1C[C@@H](O)c2cc(Cl)ccc2O1 [Compound 268, (2S,4R)-6-chloro-4-hydroxy-N-(3-{3-[cis-3-(trifluoromethoxy)cyclobutyl]-1,2-oxazol-5-yl}bicyclo[1.1.1]pentan-1-yl)-3,4-dihydro-2H-1-benzopyran-2-carboxamide]
The EC50 of the first is lower: 10 to 50 nM for the first, 50 to 250 nM for the second. The first is the more potent here.

First: O=C(NC12CC(N3CC([C@H]4C[C@@H](OC(F)(F)F)C4)OC3=O)(C1)C2)[C@H]1C[C@@H](O)c2cc(Cl)ccc2O1 (stereo partly drawn) [Compound 267, (2R,4R)-6-chloro-4-hydroxy-N-(3-{2-oxo-5-[cis-3-(trifluoromethoxy)cyclobutyl]-1,3-oxazolidin-3-yl}bicyclo[1.1.1]pentan-1-yl)-3,4-dihydro-2H-1-benzopyran-2-carboxamide]
Second: O=C(NC12CC(N3CC([C@H]4C[C@@H](OC(F)(F)F)C4)OC3=O)(C1)C2)[C@@H]1C[C@@H](O)c2cc(Cl)ccc2O1 (stereo partly drawn) [Compound 269, (2S,4R)-6-chloro-4-hydroxy-N-(3-{2-oxo-5-[cis-3-(trifluoromethoxy)cyclobutyl]-1,3-oxazolidin-3-yl}bicyclo[1.1.1]pentan-1-yl)-3,4-dihydro-2H-1-benzopyran-2-carboxamide]
The EC50 of the first is lower: 50 to 250 nM for the first, 250 to 500 nM for the second. The first is the more potent here.

First: O=C(NC12CC(c3ncc(-c4ccc(Cl)c(F)c4)o3)(C1)C2)[C@H]1C[C@@H](O)c2cc(Cl)ccc2O1 [Compound 270, (2R,4R)-6-chloro-N-{3-[5-(4-chloro-3-fluorophenyl)-1,3-oxazol-2-yl]bicyclo[1.1.1]pentan-1-yl}-4-hydroxy-3,4-dihydro-2H-1-benzopyran-2-carboxamide]
Second: O=C(NC12CC(c3ncc(-c4ccc(Cl)c(F)c4)o3)(C1)C2)[C@@H]1C[C@@H](O)c2cc(Cl)ccc2O1 [Compound 271, (2S,4R)-6-chloro-N-{3-[5-(4-chloro-3-fluorophenyl)-1,3-oxazol-2-yl]bicyclo[1.1.1]pentan-1-yl}-4-hydroxy-3,4-dihydro-2H-1-benzopyran-2-carboxamide]
The EC50 of the first is lower: < 10 nM for the first, 10 to 50 nM for the second. The first is the more potent here.

First: O=C(NC12CC(c3csc(-c4ccc(Cl)cc4)n3)(C1)C2)[C@H]1C[C@@H](O)c2cc(Cl)ccc2O1 [Compound 272, (2R,4R)-6-chloro-N-{3-[2-(4-chlorophenyl)-1,3-thiazol-4-yl]bicyclo[1.1.1]pentan-1-yl}-4-hydroxy-3,4-dihydro-2H-1-benzopyran-2-carboxamide]
Second: O=C(NC12CC(c3csc(-c4ccc(Cl)cc4)n3)(C1)C2)[C@@H]1C[C@@H](O)c2cc(Cl)ccc2O1 [Compound 273, (2S,4R)-6-chloro-N-{3-[2-(4-chlorophenyl)-1,3-thiazol-4-yl]bicyclo[11.11]pentan-1-yl}-4-hydroxy-3,4-dihydro-2H-1-benzopyran-2-carboxamide]
The EC50 of the first is lower: 10 to 50 nM for the first, 50 to 250 nM for the second.

First: Cc1nc(C23CC(NC(=O)[C@H]4C[C@@H](O)c5cc(Cl)ccc5O4)(C2)C3)oc1-c1ccc(Cl)cc1 [Compound 274, (2R,4R)-6-chloro-N-{3-[5-(4-chlorophenyl)-4-methyl-1,3-oxazol-2-yl]bicyclo[1.1.1]pentan-1-yl}-4-hydroxy-3,4-dihydro-2H-1-benzopyran-2-carboxamide]
Second: Cc1nc(C23CC(NC(=O)[C@@H]4C[C@@H](O)c5cc(Cl)ccc5O4)(C2)C3)oc1-c1ccc(Cl)cc1 [Compound 275, (2S,4R)-6-chloro-N-{3-[5-(4-chlorophenyl)-4-methyl-1,3-oxazol-2-yl]bicyclo[1.1.1]pentan-1-yl}-4-hydroxy-3,4-dihydro-2H-1-benzopyran-2-carboxamide]
The EC50 of the first is lower: 10 to 50 nM for the first, 50 to 250 nM for the second.

First: O=C(CO[C@H]1C[C@@H](OC(F)(F)F)C1)NC12CCC(NC(=O)[C@@H]3C[C@H](O)c4cc(Cl)ccc4O3)(CC1)C[C@@H]2O [Compound 276, (2S,4S)-6-chloro-4-hydroxy-N-[(3S)-3-hydroxy-4-(2-{[cis-3-(trifluoromethoxy)cyclobutyl]oxy}acetamido)bicyclo[2.2.2]octan-1-yl]-3,4-dihydro-2H-1-benzopyran-2-carboxamide]
Second: O=C(NC12CC(c3cc([C@H]4C[C@H](OC(F)(F)F)C4)no3)(C1)C2)[C@H]1C[C@@H](O)c2cc(Cl)ccc2O1 [Compound 284, (2R,4R)-6-chloro-4-hydroxy-N-(3-{3-[trans-3-(trifluoromethoxy)cyclobutyl]-1,2-oxazol-5-yl}bicyclo[1.1.1]pentan-1-yl)-3,4-dihydro-2H-1-benzopyran-2-carboxamide]
The EC50 of the first is lower: < 10 nM for the first, 50 to 250 nM for the second. The first is the more potent here.

Compared with O=C(NC12CC(N3CC(c4ccc(Cl)cc4)OC3=O)(C1)C2)[C@H]1C[C@@H](O)c2cc(Cl)ccc2O1 (stereo partly drawn) [Compound 277, (2R,4R)-6-chloro-N-{3-[5-(4-chlorophenyl)-2-oxo-1,3-oxazolidin-3-yl]bicyclo[1.1.1]pentan-1-yl}-4-hydroxy-3,4-dihydro-2H-1-benzopyran-2-carboxamide], O=C(NC12CC(N3CC(c4ccc(Cl)cc4)OC3=O)(C1)C2)[C@@H]1C[C@@H](O)c2cc(Cl)ccc2O1 (stereo partly drawn) [Compound 278, (2S,4R)-6-chloro-N-{3-[5-(4-chlorophenyl)-2-oxo-1,3-oxazolidin-3-yl]bicyclo[1.1.1]pentan-1-yl}-4-hydroxy-3,4-dihydro-2H-1-benzopyran-2-carboxamide] is higher in EC50: 50 to 250 nM for the first, 500 to 2000 nM for the second. The first is the more potent here.

O=C(NC12CC(c3csc([C@H]4C[C@@H](OC(F)(F)F)C4)n3)(C1)C2)[C@H]1C[C@@H](O)c2cc(Cl)ccc2O1 [Compound 280, (2R,4R)-6-chloro-4-hydroxy-N-(3-{2-[cis-3-(trifluoromethoxy)cyclobutyl]-1,3-thiazol-4-yl}bicyclo[1.1.1]pentan-1-yl)-3,4-dihydro-2H-1-benzopyran-2-carboxamide] and O=C(NC12CC(c3cc([C@H]4C[C@@H](OC(F)(F)F)C4)on3)(C1)C2)[C@@H]1C[C@@H](O)c2cc(Cl)ccc2O1 [Compound 283, (2S,4R)-6-chloro-4-hydroxy-N-(3-{5-[cis-3-(trifluoromethoxy)cyclobutyl]-1,2-oxazol-3-yl}bicyclo[1.1.1]pentan-1-yl)-3,4-dihydro-2H-1-benzopyran-2-carboxamide] fall in the same range of EC50: 50 to 250 nM for the first, 50 to 250 nM for the second.

O=C(NC12CC(n3cnc(-c4ccc(Cl)cc4)c3)(C1)C2)[C@H]1C[C@@H](O)c2cc(Cl)ccc2O1 [Compound 281, (2R,4R)-6-chloro-N-{3-[4-(4-chlorophenyl)-1H-imidazol-1-yl]bicyclo[1.1.1]pentan-1-yl}-4-hydroxy-3,4-dihydro-2H-1-benzopyran-2-carboxamide] and O=C(NC12CC(n3cnc(-c4ccc(Cl)c(F)c4)c3)(C1)C2)[C@H]1C[C@@H](O)c2cc(Cl)ccc2O1 [Compound 282, (2R,4R)-6-chloro-N-{3-[4-(4-chloro-3-fluorophenyl)-1H-imidazol-1-yl]bicyclo[1.1.1]pentan-1-yl}-4-hydroxy-3,4-dihydro-2H-1-benzopyran-2-carboxamide] cannot be ordered by EC50: < 10 nM for the first, < 10 nM for the second.

Compared with O=C(NC12CC(NC(=O)[C@H]3C[C@@H](O)c4cc(Cl)ccc4O3)(C1)C2)c1cnc(-c2ccccc2)o1 [Compound 285, N-(3-{[(2R,4R)-6-chloro-4-hydroxy-3,4-dihydro-2H-1-benzopyran-2-carbonyl]amino}bicyclo[11.1]pentan-1-yl)-2-phenyl-1,3-oxazole-5-carboxamide], N#C[C@H]1C[C@@H](Oc2nc(C34CC(NC(=O)[C@H]5C[C@@H](O)c6cc(Cl)ccc6O5)(C3)C4)cs2)C1 [Compound 286, (2R,4R)-6-chloro-N-[3-(2-{[cis-3-cyanocyclobutyl]oxy}-1,3-thiazol-4-yl)bicyclo[1.1.1]pentan-1-yl]-4-hydroxy-3,4-dihydro-2H-1-benzopyran-2-carboxamide] is higher in EC50: < 10 nM for the first, 500 to 2000 nM for the second. The first is the more potent here.

In the case of O=C(NC12CC(n3cnc([C@H]4C[C@@H](OC(F)(F)F)C4)c3)(C1)C2)[C@H]1C[C@@H](O)c2cc(Cl)ccc2O1 [Compound 287, (2R,4R)-6-chloro-4-hydroxy-N-(3-{4-[cis-3-(trifluoromethoxy)cyclobutyl]-1H-imidazol-1-yl}bicyclo[1.1.1]pentan-1-yl)-3,4-dihydro-2H-1-benzopyran-2-carboxamide], the EC50 is reported as < 10 nM.
